ChEMBL document CHEMBL4507262, “Data for DCP probe A-1596586” (2021)
Active and inactive are the calls of the source. No cut-off for these calls is given here.

Assays:
[1] = target: Ribosomal protein S6 kinase alpha-6 (Homo sapiens) (UniProt Q9UK32); settings: Compound concentration 1000.0 nM
[2] = target: 5'-AMP-activated protein kinase catalytic subunit alpha-1 (Homo sapiens) (UniProt Q13131); settings: Compound concentration 1000.0 nM
[3] = target: Mitogen-activated protein kinase kinase kinase 19 (Homo sapiens) (UniProt Q56UN5); settings: Compound concentration 1000.0 nM
Mitogen-activated protein kinase kinase kinase 19 (Homo sapiens), sequence (Q56UN5 whole entry): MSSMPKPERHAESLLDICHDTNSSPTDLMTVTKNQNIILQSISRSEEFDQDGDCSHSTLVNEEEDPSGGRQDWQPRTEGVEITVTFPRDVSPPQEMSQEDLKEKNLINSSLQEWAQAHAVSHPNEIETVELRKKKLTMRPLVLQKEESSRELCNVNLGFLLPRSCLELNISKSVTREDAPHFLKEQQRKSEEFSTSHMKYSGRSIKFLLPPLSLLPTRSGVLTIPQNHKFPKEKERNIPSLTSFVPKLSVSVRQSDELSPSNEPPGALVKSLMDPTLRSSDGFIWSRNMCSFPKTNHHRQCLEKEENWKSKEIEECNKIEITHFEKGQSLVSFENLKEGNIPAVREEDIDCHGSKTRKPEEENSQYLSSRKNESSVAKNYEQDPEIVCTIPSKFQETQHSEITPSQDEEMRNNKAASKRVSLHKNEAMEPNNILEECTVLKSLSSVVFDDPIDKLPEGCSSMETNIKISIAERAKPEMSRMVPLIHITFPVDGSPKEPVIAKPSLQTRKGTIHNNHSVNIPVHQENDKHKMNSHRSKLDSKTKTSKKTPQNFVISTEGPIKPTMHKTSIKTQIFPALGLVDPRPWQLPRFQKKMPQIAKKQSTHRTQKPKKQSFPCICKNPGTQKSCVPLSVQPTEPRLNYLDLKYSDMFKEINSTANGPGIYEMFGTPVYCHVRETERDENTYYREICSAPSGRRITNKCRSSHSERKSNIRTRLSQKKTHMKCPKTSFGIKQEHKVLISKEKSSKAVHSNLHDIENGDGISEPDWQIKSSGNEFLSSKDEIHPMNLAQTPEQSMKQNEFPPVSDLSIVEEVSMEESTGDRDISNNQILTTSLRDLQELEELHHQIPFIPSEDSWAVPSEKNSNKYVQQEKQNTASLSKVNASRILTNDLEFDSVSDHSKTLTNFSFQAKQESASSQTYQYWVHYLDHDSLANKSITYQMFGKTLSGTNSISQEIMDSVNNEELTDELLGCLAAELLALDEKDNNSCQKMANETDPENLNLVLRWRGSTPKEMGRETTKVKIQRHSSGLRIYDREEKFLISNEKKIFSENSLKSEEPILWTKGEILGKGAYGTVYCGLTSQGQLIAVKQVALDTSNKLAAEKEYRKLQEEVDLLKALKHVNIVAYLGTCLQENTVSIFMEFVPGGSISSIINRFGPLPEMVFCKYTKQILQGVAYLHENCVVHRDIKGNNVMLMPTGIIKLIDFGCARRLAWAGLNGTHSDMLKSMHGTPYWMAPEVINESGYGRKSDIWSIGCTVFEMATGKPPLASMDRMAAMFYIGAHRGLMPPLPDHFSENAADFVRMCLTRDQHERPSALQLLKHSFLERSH

[4] = target: Fibroblast growth factor receptor 2 (Homo sapiens) (UniProt P21802); settings: Compound concentration 1000.0 nM
[5] = target: Calcium/calmodulin-dependent protein kinase type 1B (Homo sapiens) (UniProt Q6P2M8); settings: Compound concentration 1000.0 nM
[6] = target: Tyrosine-protein kinase receptor UFO (Homo sapiens) (UniProt P30530); settings: Compound concentration 1000.0 nM
Tyrosine-protein kinase receptor UFO (Homo sapiens), sequence (P30530 whole entry): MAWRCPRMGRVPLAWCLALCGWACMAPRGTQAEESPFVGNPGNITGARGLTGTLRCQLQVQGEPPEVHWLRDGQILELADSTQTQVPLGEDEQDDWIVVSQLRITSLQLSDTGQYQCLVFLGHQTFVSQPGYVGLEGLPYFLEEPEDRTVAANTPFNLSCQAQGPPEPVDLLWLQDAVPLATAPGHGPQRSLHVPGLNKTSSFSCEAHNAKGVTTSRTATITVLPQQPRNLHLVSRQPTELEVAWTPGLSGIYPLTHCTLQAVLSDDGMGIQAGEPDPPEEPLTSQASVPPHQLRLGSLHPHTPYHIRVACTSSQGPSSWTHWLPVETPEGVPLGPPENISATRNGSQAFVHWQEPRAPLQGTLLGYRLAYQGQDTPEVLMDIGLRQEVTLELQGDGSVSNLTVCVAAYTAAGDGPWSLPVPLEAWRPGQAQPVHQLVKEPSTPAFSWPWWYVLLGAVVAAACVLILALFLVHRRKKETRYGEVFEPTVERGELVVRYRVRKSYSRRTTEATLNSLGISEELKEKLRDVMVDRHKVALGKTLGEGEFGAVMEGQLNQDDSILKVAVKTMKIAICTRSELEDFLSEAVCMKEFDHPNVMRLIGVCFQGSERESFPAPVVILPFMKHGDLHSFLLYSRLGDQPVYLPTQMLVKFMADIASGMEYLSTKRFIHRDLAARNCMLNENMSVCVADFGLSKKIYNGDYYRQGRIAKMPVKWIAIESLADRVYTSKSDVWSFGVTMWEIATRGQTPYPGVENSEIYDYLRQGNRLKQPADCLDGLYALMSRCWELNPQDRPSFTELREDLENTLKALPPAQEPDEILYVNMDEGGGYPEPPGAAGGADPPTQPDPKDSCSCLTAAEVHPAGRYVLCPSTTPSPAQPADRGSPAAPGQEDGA

[7] = target: Atypical kinase COQ8A, mitochondrial (Homo sapiens) (UniProt Q8NI60); settings: Compound concentration 1000.0 nM
[8] = target: Serine/threonine-protein kinase NLK (Homo sapiens) (UniProt Q9UBE8); settings: Compound concentration 1000.0 nM
[9] = target: Serine/threonine-protein kinase TBK1 (Homo sapiens) (UniProt Q9UHD2); settings: Compound concentration 1000.0 nM
[10] = target: Casein kinase II subunit alpha (Homo sapiens) (UniProt P68400); settings: Compound concentration 1000.0 nM
[11] = target: T1, 5-hydroxytryptamine receptor 2C (Homo sapiens) (UniProt P28335); test: 5-HT2C (h) Eurofins-Cerep binding assay; parameters: ligand concentration 1 nM; settings: filed as antagonist, Compound concentration 10.0 uM
T1 sequence (whole entry): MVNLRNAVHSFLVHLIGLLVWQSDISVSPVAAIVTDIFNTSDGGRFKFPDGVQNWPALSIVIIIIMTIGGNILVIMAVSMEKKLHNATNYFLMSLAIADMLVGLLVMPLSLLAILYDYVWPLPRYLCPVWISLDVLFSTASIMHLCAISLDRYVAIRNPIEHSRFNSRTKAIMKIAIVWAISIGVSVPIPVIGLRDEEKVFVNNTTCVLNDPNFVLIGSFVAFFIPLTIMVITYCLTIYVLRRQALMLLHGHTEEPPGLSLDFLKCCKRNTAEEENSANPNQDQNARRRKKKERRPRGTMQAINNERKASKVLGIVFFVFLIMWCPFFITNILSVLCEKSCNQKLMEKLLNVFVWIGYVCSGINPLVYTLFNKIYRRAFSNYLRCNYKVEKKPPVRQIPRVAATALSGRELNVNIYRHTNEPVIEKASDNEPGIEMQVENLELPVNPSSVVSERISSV

[12] = target: Cystic fibrosis transmembrane conductance regulator (Homo sapiens, UniProt P13569); test: Plasma membrane-expressed enzyme acceptor protein (EA-MEM) assay
[13] = target: Serine/threonine-protein kinase WNK1 (Homo sapiens) (UniProt Q9H4A3); settings: Compound concentration 1000.0 nM
[14] = target: Tyrosine-protein kinase BTK (Homo sapiens) (UniProt Q06187); settings: Compound concentration 1000.0 nM
[15] = target: Tyrosine-protein kinase Mer (Homo sapiens) (UniProt Q12866); settings: Compound concentration 1000.0 nM
Tyrosine-protein kinase Mer (Homo sapiens), sequence (Q12866 whole entry): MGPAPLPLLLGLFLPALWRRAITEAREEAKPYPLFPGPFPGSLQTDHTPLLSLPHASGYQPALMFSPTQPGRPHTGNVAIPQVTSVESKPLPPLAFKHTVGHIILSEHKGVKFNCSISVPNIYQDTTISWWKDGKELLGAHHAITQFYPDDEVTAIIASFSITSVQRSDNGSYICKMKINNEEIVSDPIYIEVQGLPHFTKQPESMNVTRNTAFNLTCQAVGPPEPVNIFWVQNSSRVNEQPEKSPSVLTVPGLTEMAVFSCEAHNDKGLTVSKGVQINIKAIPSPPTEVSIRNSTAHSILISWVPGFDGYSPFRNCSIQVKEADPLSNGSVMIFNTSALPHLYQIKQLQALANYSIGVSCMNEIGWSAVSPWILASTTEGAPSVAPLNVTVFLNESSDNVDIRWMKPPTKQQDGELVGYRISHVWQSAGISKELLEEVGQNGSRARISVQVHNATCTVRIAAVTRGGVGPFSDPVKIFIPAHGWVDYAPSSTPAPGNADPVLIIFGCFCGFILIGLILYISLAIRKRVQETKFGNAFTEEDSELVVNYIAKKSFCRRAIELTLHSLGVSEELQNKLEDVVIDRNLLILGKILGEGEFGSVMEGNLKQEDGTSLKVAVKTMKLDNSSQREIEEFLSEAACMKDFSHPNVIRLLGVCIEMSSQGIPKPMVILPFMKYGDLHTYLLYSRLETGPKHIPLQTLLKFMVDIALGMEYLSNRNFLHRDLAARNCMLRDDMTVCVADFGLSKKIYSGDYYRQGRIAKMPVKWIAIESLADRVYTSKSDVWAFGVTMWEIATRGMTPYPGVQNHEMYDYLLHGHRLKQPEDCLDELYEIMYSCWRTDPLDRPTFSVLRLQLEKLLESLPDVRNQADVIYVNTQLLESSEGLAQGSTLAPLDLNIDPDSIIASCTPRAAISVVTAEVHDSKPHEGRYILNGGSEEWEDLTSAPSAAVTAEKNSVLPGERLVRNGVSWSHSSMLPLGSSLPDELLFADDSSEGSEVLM

[16] = target: Serine/threonine-protein kinase PAK 1 (Homo sapiens) (UniProt Q13153); settings: Compound concentration 1000.0 nM
Serine/threonine-protein kinase PAK 1 (Homo sapiens), sequence (Q13153 whole entry): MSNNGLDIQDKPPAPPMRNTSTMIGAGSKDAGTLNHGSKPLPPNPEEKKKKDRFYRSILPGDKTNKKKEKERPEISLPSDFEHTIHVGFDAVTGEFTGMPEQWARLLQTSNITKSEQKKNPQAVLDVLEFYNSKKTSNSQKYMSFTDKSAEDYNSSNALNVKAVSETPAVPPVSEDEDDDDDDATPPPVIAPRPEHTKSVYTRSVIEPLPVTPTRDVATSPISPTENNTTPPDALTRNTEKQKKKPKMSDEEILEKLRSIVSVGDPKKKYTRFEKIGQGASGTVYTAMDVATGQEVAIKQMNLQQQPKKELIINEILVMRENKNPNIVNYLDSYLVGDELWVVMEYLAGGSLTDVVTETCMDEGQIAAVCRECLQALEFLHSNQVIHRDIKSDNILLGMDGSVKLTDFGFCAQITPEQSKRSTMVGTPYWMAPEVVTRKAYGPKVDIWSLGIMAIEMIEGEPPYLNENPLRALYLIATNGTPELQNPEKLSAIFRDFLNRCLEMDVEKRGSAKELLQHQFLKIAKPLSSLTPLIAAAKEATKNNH

[17] = target: Cannabinoid receptor 1 (Homo sapiens) (UniProt P21554); test: CB1 (h) Eurofins-Cerep binding assay; parameters: ligand concentration 0.5 nM; settings: filed as agonist, Compound concentration 10.0 uM
[18] = target: Phosphatidylinositol 4-phosphate 5-kinase type-1 gamma (Homo sapiens) (UniProt O60331); settings: Compound concentration 1000.0 nM
[19] = target: Beta-3 adrenergic receptor (Homo sapiens) (UniProt P13945); settings: Compound concentration 10.0 uM
[20] = target: Uncharacterized serine/threonine-protein kinase SBK3 (Homo sapiens) (UniProt P0C264); settings: Compound concentration 1000.0 nM
[21] = system: Mast/stem cell growth factor receptor Kit (Homo sapiens), P10721 [D816V]; settings: Compound concentration 1000.0 nM
[22] = target: Delta-type opioid receptor (Homo sapiens) (UniProt P41143); settings: Compound concentration 10.0 uM
[23] = target: Ribosomal protein S6 kinase alpha-3 (Homo sapiens) (UniProt P51812); settings: Compound concentration 1000.0 nM
[24] = target: Protein-tyrosine kinase 6 (Homo sapiens) (UniProt Q13882); settings: Compound concentration 1000.0 nM
[25] = target: Type-2 angiotensin II receptor (Homo sapiens) (UniProt P50052); test: AT2 (h) Eurofins-Cerep binding assay; parameters: ligand concentration 0.01 nM; settings: filed as agonist, Compound concentration 10.0 uM
[26] = target: Serine/threonine-protein kinase pim-3 (Homo sapiens) (UniProt Q86V86); settings: Compound concentration 1000.0 nM
[27] = target: Dual specificity mitogen-activated protein kinase kinase 3 (Homo sapiens) (UniProt P46734); settings: Compound concentration 1000.0 nM
Dual specificity mitogen-activated protein kinase kinase 3 (Homo sapiens), sequence (P46734 whole entry): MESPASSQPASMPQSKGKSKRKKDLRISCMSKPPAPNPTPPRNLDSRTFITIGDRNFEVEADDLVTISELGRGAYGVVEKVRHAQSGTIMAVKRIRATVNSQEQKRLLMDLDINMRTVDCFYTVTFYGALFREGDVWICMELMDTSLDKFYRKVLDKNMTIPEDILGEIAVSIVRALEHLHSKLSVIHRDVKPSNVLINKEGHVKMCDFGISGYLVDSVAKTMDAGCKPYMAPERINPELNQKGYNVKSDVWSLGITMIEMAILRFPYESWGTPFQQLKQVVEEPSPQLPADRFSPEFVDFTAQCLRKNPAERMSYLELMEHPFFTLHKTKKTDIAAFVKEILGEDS

[28] = target: Mu-type opioid receptor (Homo sapiens) (UniProt P35372); settings: Compound concentration 10.0 uM
[29] = target: Serine/threonine-protein kinase ICK (Homo sapiens) (UniProt Q9UPZ9); settings: Compound concentration 1000.0 nM
[30] = target: T2, 5-hydroxytryptamine receptor 3A (Homo sapiens) (UniProt P46098); settings: Compound concentration 10.0 uM
T2 sequence (whole entry): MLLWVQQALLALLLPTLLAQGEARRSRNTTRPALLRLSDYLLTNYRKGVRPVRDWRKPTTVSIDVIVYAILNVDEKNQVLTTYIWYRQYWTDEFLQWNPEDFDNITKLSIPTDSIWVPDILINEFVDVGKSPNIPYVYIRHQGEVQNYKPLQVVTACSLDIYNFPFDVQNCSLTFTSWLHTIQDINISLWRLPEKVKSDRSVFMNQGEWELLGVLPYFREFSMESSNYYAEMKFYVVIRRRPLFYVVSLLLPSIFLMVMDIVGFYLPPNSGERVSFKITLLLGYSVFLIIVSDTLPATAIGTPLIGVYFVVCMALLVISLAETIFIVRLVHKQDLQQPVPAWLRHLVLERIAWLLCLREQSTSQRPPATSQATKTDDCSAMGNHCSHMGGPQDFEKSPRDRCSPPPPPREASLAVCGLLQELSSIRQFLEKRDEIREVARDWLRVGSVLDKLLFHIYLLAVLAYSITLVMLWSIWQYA

[31] = target: Calcium/calmodulin-dependent protein kinase type II subunit alpha (Homo sapiens) (UniProt Q9UQM7); settings: Compound concentration 1000.0 nM
[32] = target: Aurora kinase A (Homo sapiens) (UniProt O14965); settings: Compound concentration 1000.0 nM
Aurora kinase A (Homo sapiens), sequence (O14965 whole entry): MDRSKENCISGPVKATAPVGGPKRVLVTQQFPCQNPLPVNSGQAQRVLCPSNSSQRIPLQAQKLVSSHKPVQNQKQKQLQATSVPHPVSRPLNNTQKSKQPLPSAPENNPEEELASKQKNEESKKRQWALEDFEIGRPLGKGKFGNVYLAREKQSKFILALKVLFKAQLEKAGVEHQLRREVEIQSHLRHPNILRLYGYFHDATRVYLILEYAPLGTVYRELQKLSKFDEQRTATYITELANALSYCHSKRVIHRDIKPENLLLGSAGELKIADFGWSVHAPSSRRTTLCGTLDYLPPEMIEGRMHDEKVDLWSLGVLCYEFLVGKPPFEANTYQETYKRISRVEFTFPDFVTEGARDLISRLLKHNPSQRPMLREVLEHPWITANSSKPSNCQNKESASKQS

5'-AMP-activated protein kinase catalytic subunit alpha-1 (Homo sapiens), sequence (Q13131 whole entry, looked up): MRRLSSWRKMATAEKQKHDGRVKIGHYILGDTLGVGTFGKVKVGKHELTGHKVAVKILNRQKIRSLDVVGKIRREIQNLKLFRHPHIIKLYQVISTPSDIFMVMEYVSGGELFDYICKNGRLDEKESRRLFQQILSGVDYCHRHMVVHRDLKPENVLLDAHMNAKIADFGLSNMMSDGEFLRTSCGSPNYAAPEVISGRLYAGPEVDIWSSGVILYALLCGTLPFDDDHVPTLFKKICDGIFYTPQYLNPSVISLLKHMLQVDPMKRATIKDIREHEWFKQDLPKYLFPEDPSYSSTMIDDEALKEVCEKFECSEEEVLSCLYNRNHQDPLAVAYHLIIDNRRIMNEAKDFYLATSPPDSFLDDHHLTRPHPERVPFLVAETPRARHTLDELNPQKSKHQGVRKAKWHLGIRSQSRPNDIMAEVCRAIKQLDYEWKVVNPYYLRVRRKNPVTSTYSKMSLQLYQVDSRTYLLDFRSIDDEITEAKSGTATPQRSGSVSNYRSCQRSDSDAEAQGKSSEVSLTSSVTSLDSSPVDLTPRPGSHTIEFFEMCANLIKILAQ

Question: Which residual activity [1] does the source give for COc1ccc2c(c1)O[C@@H](c1ccc(OC)c(OC)c1)C[C@H]2NC(=O)C1(c2ccc3c(c2)OC(F)(F)O3)CC1 [A-1596586] here?
Answer: 91%

Question: What about the residual activity [2] of the same compound?
Answer: 80%

Question: What about the residual activity [3] of the same compound?
Answer: 83%

Question: What about the residual activity [4] of the same compound?
Answer: 93%

Question: And the residual activity [5]?
Answer: 100%

Question: And the residual activity [6]?
Answer: 100%

Question: And the residual activity [7]?
Answer: 87%

Question: And the residual activity [8]?
Answer: 100%

Question: And the residual activity [9]?
Answer: 86%

Question: And the residual activity [10]?
Answer: 94%

Question: And the % Inhibition of Control Specific Binding (Mean n=2) [11]?
Answer: 6.4%

Question: And the EC50 [12]?
Answer: 35 nM (active)

Question: What about the residual activity [13] of the same compound?
Answer: 100%

Question: What about the residual activity [14] of the same compound?
Answer: 81%

Question: And the residual activity [15]?
Answer: 95%

Question: And the residual activity [16]?
Answer: 89%

Question: And the % Inhibition of Control Specific Binding (Mean n=2) [17]?
Answer: 40.8%

Question: What about the residual activity [18] of the same compound?
Answer: 92%

Question: What about the inhibition [19] of the same compound?
Answer: 3.77%

Question: And the residual activity [20]?
Answer: 100%

Question: What about the residual activity [21] of the same compound?
Answer: 92%

Question: And the inhibition [22]?
Answer: -7.29%

Question: And the residual activity [23]?
Answer: 100%

Question: What about the residual activity [24] of the same compound?
Answer: 100%

Question: And the % Inhibition of Control Specific Binding (Mean n=2) [25]?
Answer: 4.9%

Question: And the residual activity [26]?
Answer: 91%

Question: What about the residual activity [27] of the same compound?
Answer: 78%

Question: What about the inhibition [28] of the same compound?
Answer: 6.01%

Question: And the residual activity [29]?
Answer: 74%

Question: What about the inhibition [30] of the same compound?
Answer: -1.13%

Question: What about the residual activity [31] of the same compound?
Answer: 98%

Question: And the residual activity [32]?
Answer: 92%

Question: What does the source list for COc1ccc2c(c1)O[C@H](c1ccc(OC)c(OC)c1)C[C@@H]2NC(=O)C1(c2ccc3c(c2)OC(F)(F)O3)CC1 [A-1596584]?
Answer: residual activity [1]: 91%; residual activity [2]: 100%; residual activity [3]: 100%; residual activity [4]: 92%; residual activity [5]: 100%; residual activity [6]: 100%; residual activity [7]: 100%; residual activity [8]: 100%; residual activity [9]: 99%; residual activity [10]: 100%; % Inhibition of Control Specific Binding (Mean n=2) [11]: 1.2%; EC50 [12]: 3900 nM (not active); residual activity [13]: 100%; residual activity [14]: 92%; residual activity [15]: 98%; residual activity [16]: 100%; % Inhibition of Control Specific Binding (Mean n=2) [17]: 46%; residual activity [18]: 100%; inhibition [19]: -7.53%; residual activity [20]: 100%; residual activity [21]: 99%; inhibition [22]: -9.84%; residual activity [23]: 93%; residual activity [24]: 100%; % Inhibition of Control Specific Binding (Mean n=2) [25]: -3.4%; residual activity [26]: 100%; residual activity [27]: 100%; inhibition [28]: 4.18%; residual activity [29]: 80%; inhibition [30]: -3.53%; residual activity [31]: 100%; residual activity [32]: 100%
